We go through 29 compounds from patent US20230050653A1, “ROCK INHIBITOR AND PREPARATION METHOD THEREFOR AND USE THEREOF” (WUHAN LL SCIENCE AND TECHNOLOGY DEVELOPMENT CO., LTD., priority 2019, published 2023).

For one experiment, the target named is T1, ROCK2 kinase (Homo sapiens, UniProt O75116).
T1 construct: purchased Invitrogen PV3759
The experiment is described as follows: In vitro evaluation of ROCK2 kinase activity (HTRF KinEASE-STK time-resolved fluorometric assay). It is filed as biochemical. Here is the method:
ROCK2 activity screening. ROCK2 activity was detected using a 96-well (Cisbio) time-resolved fluorometric assay. The assay for ROCK2 was performed in the following assay buffer: 5 mM MgCl2 (Sigma), 1 mM DTT (Sigma) and 1× kinase buffer. The kinase buffer was used for dilution. 7.5 μL of ROCK2 kinase (Invitrogen, PV3759) was added to a 96-well microplate to reach a final concentration of 0.4 ng/μL, and then 0.25 μL of test compound (DMSO content: 1% (volume fraction)) was added. The mixture was incubated at room temperature for 0.5 h. To start the reaction, the kinase buffer was used to mix ATP (Aladdin) and the substrate STK-substrate 2-biotin. 7.5 μL of the mixed solution was added to the microplate to reach final concentrations of 6.739 μM and 1 μM. The resulting mixture was incubated for 2 h at room temperature. 5 mL of detection buffer was mixed with STK antibody-Cryptate, and then an appropriate volume of the mixture was mixed with an equal volume of streptavidin-XL665. 10 μL of the resulting mixture was added to the microplate to stop the reaction. After further incubation for about 1 h, the microplate was read on a Molecular Devices SpectraMax i3x multifunctional microplate reader. The kinase buffer, the STK-substrate 2-biotin, the detection buffer, the STK antibody-Cryptate, and the streptavidin-XL665 were all from HTRF KinEASE-STK kit (Cisbio, 1000 tests, 61[…]).
In general terms: In TR-FRET formats the signal depends on donor and acceptor labels being close together.

Another experiment concerns the target T2, ROCK1 kinase (Homo sapiens, UniProt Q13464).
T2 construct: purchased Invitrogen
The experiment is described as follows: In vitro evaluation of ROCK1 kinase selectivity (HTRF KinEASE-STK time-resolved fluorometric assay). It is filed as biochemical. Here is the method:
ROCK1 activity was detected using a 96-well (Cisbio) time-resolved fluorometric assay. The assay for ROCK1 was performed in the following assay buffer: 5 mM MgCl2 (Sigma), 1 mM DTT (Sigma) and 1× kinase buffer. The kinase buffer was used for dilution. 7.5 μL of ROCK1 kinase (Invitrogen) was added to a 96-well microplate to reach a final concentration of 0.4 ng/μL, and then 0.25 μL of test compound (DMSO content: 1%) was added. The mixture was incubated at room temperature for 0.5 h. To start the reaction, the kinase buffer was also used to mix ATP (Aladdin) and the substrate STK-substrate 2-biotin. 7.5 μL of the mixed solution was added to the microplate to reach final concentrations of 3.53 μM and 1 μM. The resulting mixture was incubated for 2 h at room temperature. […] was mixed with STK antibody-Cryptate, and then an appropriate volume of the mixture was mixed with an equal volume of streptavidin-XL665. 10 μL of the resulting mixture was added to stop the reaction. After further incubation for about 1 h, the microplate was read on a Molecular Devices SpectraMax i3x multifunctional microplate reader. The kinase buffer, the STK-substrate 2-biotin, the detection buffer, the STK antibody-Cryptate, and the streptavidin-XL665 were all from HTRF KinEASE-STK kit (Cisbio, 1000 tests, 61[…]).

pIC50: −log10 of the molar value.

As usually defined, the pIC50 is the negative decadic logarithm of the IC50, by convention in mol/L. High values mean a small IC50, low ones a large IC50.

T1 sequence (O75116 whole entry): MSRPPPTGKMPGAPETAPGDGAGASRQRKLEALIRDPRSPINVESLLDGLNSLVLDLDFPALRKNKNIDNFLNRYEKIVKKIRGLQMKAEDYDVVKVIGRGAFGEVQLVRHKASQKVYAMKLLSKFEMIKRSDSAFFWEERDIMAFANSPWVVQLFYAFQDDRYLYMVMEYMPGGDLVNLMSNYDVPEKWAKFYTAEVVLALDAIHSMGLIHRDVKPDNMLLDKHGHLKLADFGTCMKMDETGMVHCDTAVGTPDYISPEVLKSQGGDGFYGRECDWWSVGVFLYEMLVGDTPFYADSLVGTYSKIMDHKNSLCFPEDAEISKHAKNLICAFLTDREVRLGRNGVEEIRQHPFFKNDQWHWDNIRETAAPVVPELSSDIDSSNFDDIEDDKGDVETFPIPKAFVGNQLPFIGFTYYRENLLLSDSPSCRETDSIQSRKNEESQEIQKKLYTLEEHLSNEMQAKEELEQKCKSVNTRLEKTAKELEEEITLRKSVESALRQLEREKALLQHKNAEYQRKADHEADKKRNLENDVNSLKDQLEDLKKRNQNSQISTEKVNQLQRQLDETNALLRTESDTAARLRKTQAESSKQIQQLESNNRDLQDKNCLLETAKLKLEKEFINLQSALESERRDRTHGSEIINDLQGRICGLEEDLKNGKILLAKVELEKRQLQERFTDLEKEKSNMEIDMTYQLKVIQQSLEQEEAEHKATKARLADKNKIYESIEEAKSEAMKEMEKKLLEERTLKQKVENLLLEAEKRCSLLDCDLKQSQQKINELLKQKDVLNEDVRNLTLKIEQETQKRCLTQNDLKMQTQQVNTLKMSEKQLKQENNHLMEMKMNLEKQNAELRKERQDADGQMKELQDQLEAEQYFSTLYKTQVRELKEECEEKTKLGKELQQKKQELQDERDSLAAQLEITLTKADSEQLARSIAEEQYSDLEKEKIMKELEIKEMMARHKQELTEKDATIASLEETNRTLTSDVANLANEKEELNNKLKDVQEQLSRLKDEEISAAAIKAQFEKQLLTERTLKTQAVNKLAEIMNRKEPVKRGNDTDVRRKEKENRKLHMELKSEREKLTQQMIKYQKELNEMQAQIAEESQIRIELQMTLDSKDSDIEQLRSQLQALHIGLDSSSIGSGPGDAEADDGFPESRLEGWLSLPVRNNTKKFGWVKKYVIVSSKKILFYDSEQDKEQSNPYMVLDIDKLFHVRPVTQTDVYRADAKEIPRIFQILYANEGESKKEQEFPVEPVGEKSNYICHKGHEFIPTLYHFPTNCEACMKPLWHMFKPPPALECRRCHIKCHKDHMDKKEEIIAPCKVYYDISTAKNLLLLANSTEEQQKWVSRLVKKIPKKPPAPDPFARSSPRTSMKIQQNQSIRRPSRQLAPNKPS
T2 sequence (Q13464 whole entry): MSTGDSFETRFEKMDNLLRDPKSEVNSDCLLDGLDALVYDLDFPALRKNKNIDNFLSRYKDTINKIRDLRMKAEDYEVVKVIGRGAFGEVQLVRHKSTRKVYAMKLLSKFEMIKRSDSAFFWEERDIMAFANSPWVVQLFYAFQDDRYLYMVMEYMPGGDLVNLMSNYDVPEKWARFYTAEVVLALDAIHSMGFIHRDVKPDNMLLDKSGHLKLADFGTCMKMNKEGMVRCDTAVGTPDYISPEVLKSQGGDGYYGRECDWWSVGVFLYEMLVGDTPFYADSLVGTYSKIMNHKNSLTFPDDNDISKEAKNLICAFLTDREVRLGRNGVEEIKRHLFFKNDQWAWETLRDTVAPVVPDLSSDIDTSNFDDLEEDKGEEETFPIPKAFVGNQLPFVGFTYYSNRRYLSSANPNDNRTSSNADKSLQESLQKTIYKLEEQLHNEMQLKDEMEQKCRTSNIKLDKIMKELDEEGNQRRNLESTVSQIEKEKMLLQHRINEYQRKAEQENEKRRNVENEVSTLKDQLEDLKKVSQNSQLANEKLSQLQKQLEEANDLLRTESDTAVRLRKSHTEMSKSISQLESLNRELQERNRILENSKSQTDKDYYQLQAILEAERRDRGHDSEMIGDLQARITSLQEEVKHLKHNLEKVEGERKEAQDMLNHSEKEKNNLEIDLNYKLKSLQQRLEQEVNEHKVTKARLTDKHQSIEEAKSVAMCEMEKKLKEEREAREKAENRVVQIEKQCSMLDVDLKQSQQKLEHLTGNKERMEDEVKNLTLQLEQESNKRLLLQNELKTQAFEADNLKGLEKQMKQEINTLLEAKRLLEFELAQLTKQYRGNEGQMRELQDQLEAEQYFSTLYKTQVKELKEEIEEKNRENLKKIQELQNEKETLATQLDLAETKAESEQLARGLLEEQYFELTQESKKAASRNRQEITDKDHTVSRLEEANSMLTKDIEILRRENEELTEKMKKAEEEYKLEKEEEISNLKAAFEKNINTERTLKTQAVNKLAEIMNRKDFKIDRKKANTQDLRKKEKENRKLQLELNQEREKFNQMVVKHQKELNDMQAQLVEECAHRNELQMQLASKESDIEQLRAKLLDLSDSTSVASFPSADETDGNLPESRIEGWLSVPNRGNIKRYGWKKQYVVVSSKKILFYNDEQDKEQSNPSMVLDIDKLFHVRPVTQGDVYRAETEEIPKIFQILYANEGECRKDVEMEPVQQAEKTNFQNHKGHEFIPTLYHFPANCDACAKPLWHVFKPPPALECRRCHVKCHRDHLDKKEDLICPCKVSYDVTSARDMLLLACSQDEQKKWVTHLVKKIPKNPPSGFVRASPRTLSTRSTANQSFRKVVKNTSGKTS

As to `COc1cc(F)cc([C@@H](CO)NC(=O)N2CCc3cc(-c4cn[nH]c4)c(F)cc32)c1` [Compound T377, (S)-6-fluoro-N-(1-(3-fluoro-5-methoxyphenyl)-2-hydroxyethyl)-5-(1H-pyrazol-4-yl)indoline-1-carboxamide], the pIC50 on ROCK2 kinase and at ROCK1 kinase was no less than 7.30 in each case.
`COc1cc(F)cc(CNC(=O)c2cnn3cc(-c4cn[nH]c4)ccc23)c1` [Compound T239]: the pIC50 against ROCK2 kinase and on ROCK1 kinase was no less than 7.30 throughout.
For `N#Cc1cc(F)cc(CNC(=O)N2CCc3cc(-c4c[nH]nc4N)c(F)cc32)c1` [Compound T348, 5-(3-amino-1H-pyrazol-4-yl)-N-(3-cyano-5-fluorobenzyl)-6-fluoroindoline-1-carboxamide], the pIC50 at ROCK2 kinase and on ROCK1 kinase was 5.30 to 6.30 each time.
On to `COc1cc(F)cc(CNC(=O)N2CCc3ccc(-c4cn[nH]c4)cc3C2)c1` [Compound T208, N-(3-fluoro-5-methoxybenzyl)-7-(1H-pyrazol-4-yl)-3,4-dihydroisoquinoline-2(1H)-carboxamide], for which the pIC50 at ROCK2 kinase and against ROCK1 kinase was no less than 7.30 in each case.
As to `COc1cc(F)cc(CNC(=O)c2ncc3cc(-c4cn[nH]c4)ccn23)c1` [Compound T234], the pIC50 on ROCK2 kinase and against ROCK1 kinase was no less than 7.30 each time.
As for `Nc1n[nH]cc1-c1cc2c(cc1F)N(C(=O)NCc1cc(F)cc(F)c1)CC2` [Compound T364, 5-(3-amino-1H-pyrazol-4-yl)-6-fluoro-N-(3,5-difluorobenzyl)indoline-1-carboxamide], the figures for the pIC50 against ROCK2 kinase and against ROCK1 kinase were 6.30 to 7.30 and 5.30 to 6.30, respectively.
The like results for `O=C(NCc1cc(F)cc(F)c1)N1CCc2cc(-c3cn[nH]c3)ccc21` [Compound T226] were, in that order, no less than 7.30 and 6.30 to 7.30.
The corresponding values for `COc1cc(F)cc(CN(C(=O)N2CCc3cc(-c4cn[nH]c4)ccc3C2)C2COC2)c1` [Compound T214] are 6.30 to 7.30 and 6.30 to 7.30.
The corresponding values for `COCCOc1cc(F)cc(CNC(=O)N2CCc3cc(-c4cn[nH]c4)ccc32)c1` [Compound T213] are no less than 7.30 and no less than 7.30.
Take `COc1cc(F)cc(CN(C(=O)N2CCc3cc(-c4cn[nH]c4)ccc32)C2CCOCC2)c1` [Compound T215]: the negative logarithm of the IC50 (pIC50) at ROCK2 kinase and against ROCK1 kinase was 5.30 to 6.30 throughout.
Take `O=C(NCc1cc(F)cc(OCC2CC2)c1)N1CCc2cc(-c3c[nH]nc3F)c(F)cc21` [Compound T347, N-(3-(cyclopropylmethoxy)5-fluorobenzyl)-6-fluoro-5-(3-fluoro-1H-pyrazol-4-yl)indoline-1-carboxamide]: the pIC50 at ROCK2 kinase and against ROCK1 kinase was no less than 7.30 each time.
Turning to `COc1cc(F)cc(CNC(=O)N2CCc3nc(-c4cn[nH]c4)sc3C2)c1` [Compound T224, N-(3-fluoro-5-methoxybenzyl)-2-(1H-pyrazol-4-yl)-6,7-dihydrothiazolo[5,4-c]pyridine-5(4H)-carboxamide], the pIC50 against ROCK2 kinase and against ROCK1 kinase was 6.30 to 7.30 in each case.
`O=C(NC1CCCC1)c1cccc([C@@H](CO)NC(=O)N2CCc3cc(-c4cn[nH]c4)c(F)cc32)c1` [Compound T356-S, (S)-N-(1-(3-(cyclopentylcarbamoyl)phenyl)-2-hydroxyethyl)-6-fluoro-5-(1H-pyrazol-4-yl)indoline-1-carboxamide]: the pIC50 against ROCK2 kinase and against ROCK1 kinase was no less than 7.30 throughout.
With `COc1cc(F)cc(CNC(=O)N2CC(C)(C)c3cc(-c4cn[nH]c4)ccc32)c1` [Compound T223], the pIC50 on ROCK2 kinase and at ROCK1 kinase was no less than 7.30 each time.
`COc1cc(F)cc(CNC(=O)c2cnc3cc(-c4cn[nH]c4)ccn23)c1` [Compound T233]: the pIC50 against ROCK2 kinase and at ROCK1 kinase was no less than 7.30 throughout.
Take `O=C(NC1CCCC1)c1cc(F)cc(C(CO)NC(=O)N2CCc3cc(-c4cn[nH]c4)c(F)cc32)c1` (stereo not drawn) [Compound T389, N-(1-(3-(cyclopentylcarbamoyl)-5-fluorophenyl)-2-hydroxyethyl)-6-fluoro-5-(1H-pyrazol-4-yl)indoline-1-carboxamide]: the negative-log IC50 (pIC50) at ROCK2 kinase and against ROCK1 kinase was no less than 7.30 throughout.
For `COc1cc(F)cc(CNC(=O)N2CCc3c2cc(F)c(-c2cn[nH]c2)c3F)c1` [Compound T228, 4,6-difluoro-N-(3-fluoro-5-methoxybenzyl)-5-(1H-pyrazol-4-yl)indoline-1-carboxamide], the pIC50 against ROCK2 kinase and against ROCK1 kinase was no less than 7.30 throughout.
Regarding `COc1cc(F)cc(CNC(=O)c2ccc3nc(-c4cn[nH]c4)ccn23)c1` [Compound T235], the pIC50 against ROCK2 kinase and against ROCK1 kinase was no less than 7.30 in each case.
For the compound `O=C(NCc1ccccc1)N1CCc2cc(-c3cn[nH]c3)ccc21` [Compound T207, N-benzyl-5-(1H-pyrazol-4-yl)indoline-1-carboxamide], the pIC50 at ROCK2 kinase and on ROCK1 kinase was no less than 7.30 in each case.
For `COc1cc(F)cc([C@@H](CO)NC(=O)c2ncn3cc(-c4cn[nH]c4)ccc23)c1` [Compound T344, (S)-N-(1-(3-fluoro-5-methoxyphenyl)-2-hydroxyethyl)-6-(1H-pyrazol-4-yl)imidazo[1,5-a]pyridine-1-carboxamide], the pIC50 against ROCK2 kinase and on ROCK1 kinase was no less than 7.30 throughout.
With `COc1cc(F)cc(CN(C)C(=O)N2CCc3cc(-c4cn[nH]c4)ccc32)c1` [Compound T206, N-(3-fluoro-5-methoxybenzyl)-N-methyl-5-(1H-pyrazol-4-yl)indoline-1-carboxamide], the values for the pIC50 against ROCK2 kinase and on ROCK1 kinase were 6.30 to 7.30 and 5.30 to 6.30, respectively.
The corresponding values for `COc1cc(F)cc([C@@H](CO)NC(=O)N2CCc3cc(-c4c[nH]nc4N)c(F)cc32)c1` [Compound T365, (S′)-5-(3-amino-1H-pyrazol-4-yl)-6-fluoro-N-(1-(3-fluoro-5-methoxyphenyl)-2-hydroxyethyl)indoline-1-carboxamide] are no less than 7.30 and 6.30 to 7.30.
The corresponding values for `O=C(COc1cc(F)cc([C@@H](CO)NC(=O)N2CCc3cc(-c4cn[nH]c4)c(F)cc32)c1)N1CC(F)(F)C1` [Compound T350, (S′)-N-(1-(3-(2-(3,3-difluoroazetidin-1-yl)-2-oxoethoxy)-5-fluorophenyl)-2-hydroxyethyl)-6-fluoro-5-(1H-pyrazol-4-yl)indoline-1-carboxamide] are no less than 7.30 and no less than 7.30.
The like results for `COc1cc(F)cc(CNC(=O)N2CCc3cc(-c4cn[nH]c4)cc(Cl)c32)c1` [Compound T221, 7-chloro-N-(3-fluoro-5-methoxybenzyl)-5-(1H-pyrazol-4-yl)indoline-1-carboxamide] were, in that order, 6.30 to 7.30 and 6.30 to 7.30.
Regarding `O=C(N[C@H](CO)c1cc(F)cc(OCC2CC2)c1)N1CCc2cc(-c3cn[nH]c3)c(F)cc21` [Compound T386, (S)-N-(1-(3-(cyclopropylmethoxy)-5-fluorophenyl)-2-hydroxyethyl)-6-fluoro-5-(1H-pyrazol-4-yl)indoline-1-carboxamide], the figures for the pIC50 on ROCK2 kinase and against ROCK1 kinase were no less than 7.30 and 6.30 to 7.30, respectively.
The like results for `COc1cc(F)cc(CNC(=O)n2ccc3cc(-c4cn[nH]c4)ccc32)c1` [Compound T210] were, in that order, 6.30 to 7.30 and 6.30 to 7.30.
The corresponding values for `CC(C)COc1cc(F)cc([C@@H](CO)NC(=O)N2CCc3cc(-c4cn[nH]c4)c(F)cc32)c1` [Compound T354, (S)-6-fluoro-N-(1-(3-fluoro-3-isobutoxyphenyl)-2-hydroxyethyl)-5-(1H-pyrazol-4-yl)indoline-1-carboxamide] are 6.30 to 7.30 and 6.30 to 7.30.
The like results for `O=C(NCc1cc(F)cc(OC(F)(F)F)c1)N1CCc2cc(-c3cn[nH]c3)c(F)cc21` [Compound T349, 6-fluoro-N-(3-fluoro-5-(trifluoromethoxy)benzyl)-5-(1H-pyrazol-4-yl)indoline-1-carboxamide] were, in that order, 5.30 to 6.30 and 5.30 to 6.30.
For `COc1cccc(F)c1C(CO)NC(=O)N1CCc2cc(-c3cn[nH]c3)c(F)cc21` (stereo not drawn) [Compound T363, 6-fluoro-N-(1-(2-fluoro-6-methoxyphenyl)-2-hydroxyethyl)-5-(1H-pyrazol-4-yl)indoline-1-carboxamide], at ROCK2 kinase, the pIC50 was 6.30 to 7.30.
